Test results as given in ChEMBL document CHEMBL5291721, “A preclinical secondary pharmacology resource illuminates target-adverse drug reaction associations of marketed drugs” (Nat Commun, 2023).

What was measured:
[1] = molecular target: T1, B2 bradykinin receptor (Homo sapiens, UniProt P30411)
T1 sequence (P30411 whole entry): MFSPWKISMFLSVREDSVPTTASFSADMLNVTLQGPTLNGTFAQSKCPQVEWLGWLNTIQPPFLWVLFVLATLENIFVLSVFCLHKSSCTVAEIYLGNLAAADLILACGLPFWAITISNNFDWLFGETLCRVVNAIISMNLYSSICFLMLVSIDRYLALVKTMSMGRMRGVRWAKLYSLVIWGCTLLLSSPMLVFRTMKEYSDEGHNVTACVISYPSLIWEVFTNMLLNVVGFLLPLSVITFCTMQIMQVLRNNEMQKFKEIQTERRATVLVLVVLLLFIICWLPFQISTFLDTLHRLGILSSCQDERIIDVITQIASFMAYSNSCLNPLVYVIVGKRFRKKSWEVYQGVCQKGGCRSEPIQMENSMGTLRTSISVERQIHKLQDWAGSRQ

[2] = molecular target: Neuronal acetylcholine receptor subunit alpha-4 (Homo sapiens, UniProt P43681)
[3] = molecular target: cGMP-inhibited 3',5'-cyclic phosphodiesterase 3A (Homo sapiens, UniProt Q14432); type: functional
[4] = molecular target: Gamma-aminobutyric acid receptor subunit alpha-1 (Rattus norvegicus, UniProt P62813)
[5] = molecular target: T2, Neuropeptide Y receptor type 1 (Homo sapiens, UniProt P25929)
T2 sequence (P25929 whole entry): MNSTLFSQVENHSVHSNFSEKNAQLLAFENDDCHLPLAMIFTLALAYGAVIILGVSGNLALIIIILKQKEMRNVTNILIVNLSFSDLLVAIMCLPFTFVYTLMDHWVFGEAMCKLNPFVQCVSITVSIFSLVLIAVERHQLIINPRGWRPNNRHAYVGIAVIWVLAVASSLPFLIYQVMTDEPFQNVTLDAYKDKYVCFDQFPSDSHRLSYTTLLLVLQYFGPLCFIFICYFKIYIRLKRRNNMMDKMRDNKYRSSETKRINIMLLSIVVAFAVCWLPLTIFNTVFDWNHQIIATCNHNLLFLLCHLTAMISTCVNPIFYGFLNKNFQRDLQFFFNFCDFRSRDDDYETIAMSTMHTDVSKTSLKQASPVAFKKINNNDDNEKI

[6] = molecular target: T3, Cholecystokinin receptor type A (Homo sapiens, UniProt P32238)
T3 sequence (P32238 whole entry): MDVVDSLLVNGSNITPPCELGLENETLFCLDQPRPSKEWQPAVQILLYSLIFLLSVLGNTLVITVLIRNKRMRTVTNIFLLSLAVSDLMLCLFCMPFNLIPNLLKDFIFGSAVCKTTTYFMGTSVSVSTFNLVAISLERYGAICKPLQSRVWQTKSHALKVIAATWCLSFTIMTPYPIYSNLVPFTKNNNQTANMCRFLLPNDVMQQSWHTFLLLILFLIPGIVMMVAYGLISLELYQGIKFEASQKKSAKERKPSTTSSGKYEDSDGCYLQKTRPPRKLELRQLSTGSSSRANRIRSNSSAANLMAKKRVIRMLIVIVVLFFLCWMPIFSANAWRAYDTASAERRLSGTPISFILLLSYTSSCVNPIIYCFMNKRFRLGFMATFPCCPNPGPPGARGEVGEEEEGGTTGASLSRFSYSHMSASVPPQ

[7] = molecular target: Kappa-type opioid receptor (Homo sapiens, UniProt P41145)
[8] = molecular target: T4, 5-hydroxytryptamine receptor 3A (Homo sapiens, UniProt P46098); type: functional
T4 sequence (P46098 whole entry): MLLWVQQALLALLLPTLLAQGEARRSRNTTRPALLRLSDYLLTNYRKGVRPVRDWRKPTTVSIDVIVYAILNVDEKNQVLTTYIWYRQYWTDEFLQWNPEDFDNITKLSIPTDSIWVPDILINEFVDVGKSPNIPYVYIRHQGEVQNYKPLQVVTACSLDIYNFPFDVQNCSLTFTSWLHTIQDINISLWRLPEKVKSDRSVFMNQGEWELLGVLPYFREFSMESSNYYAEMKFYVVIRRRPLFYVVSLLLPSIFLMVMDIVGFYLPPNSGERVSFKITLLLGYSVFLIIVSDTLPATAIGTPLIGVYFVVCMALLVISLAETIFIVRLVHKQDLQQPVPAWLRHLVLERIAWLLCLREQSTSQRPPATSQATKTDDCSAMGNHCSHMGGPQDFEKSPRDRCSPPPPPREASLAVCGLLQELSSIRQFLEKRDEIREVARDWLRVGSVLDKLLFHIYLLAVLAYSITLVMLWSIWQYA

[9] = molecular target: Vasopressin V2 receptor (Homo sapiens, UniProt P30518)
[10] = molecular target: Beta-1 adrenergic receptor (Homo sapiens, UniProt P08588); type: functional
[11] = molecular target: T5, Amine oxidase [flavin-containing] A (Homo sapiens, UniProt P21397); type: functional
T5 sequence (P21397 whole entry): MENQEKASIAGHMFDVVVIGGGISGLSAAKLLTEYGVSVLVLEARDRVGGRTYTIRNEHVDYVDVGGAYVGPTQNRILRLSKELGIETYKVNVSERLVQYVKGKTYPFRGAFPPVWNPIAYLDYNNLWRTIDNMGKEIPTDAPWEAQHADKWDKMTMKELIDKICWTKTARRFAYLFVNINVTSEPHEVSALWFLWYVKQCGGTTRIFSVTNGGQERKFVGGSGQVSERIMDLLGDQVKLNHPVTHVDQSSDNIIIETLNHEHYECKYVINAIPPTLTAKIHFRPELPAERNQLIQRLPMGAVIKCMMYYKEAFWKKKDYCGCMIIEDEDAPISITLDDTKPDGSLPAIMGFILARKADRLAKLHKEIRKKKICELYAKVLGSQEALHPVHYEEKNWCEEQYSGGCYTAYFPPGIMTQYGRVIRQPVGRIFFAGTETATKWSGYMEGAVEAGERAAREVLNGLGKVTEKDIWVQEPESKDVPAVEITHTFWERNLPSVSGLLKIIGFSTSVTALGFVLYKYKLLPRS

[12] = molecular target: Histamine H2 receptor (Homo sapiens, UniProt P25021); type: functional, cell-based
[13] = molecular target: Gamma-aminobutyric acid receptor subunit alpha-1/alpha-2/beta-2/gamma-2 (Homo sapiens, UniProt P14867+P18507+P47869+P47870); type: protein-complex assay
Note: assay procedure not described here.

Sequence of Gamma-aminobutyric acid receptor subunit alpha-1 (P62813 whole entry): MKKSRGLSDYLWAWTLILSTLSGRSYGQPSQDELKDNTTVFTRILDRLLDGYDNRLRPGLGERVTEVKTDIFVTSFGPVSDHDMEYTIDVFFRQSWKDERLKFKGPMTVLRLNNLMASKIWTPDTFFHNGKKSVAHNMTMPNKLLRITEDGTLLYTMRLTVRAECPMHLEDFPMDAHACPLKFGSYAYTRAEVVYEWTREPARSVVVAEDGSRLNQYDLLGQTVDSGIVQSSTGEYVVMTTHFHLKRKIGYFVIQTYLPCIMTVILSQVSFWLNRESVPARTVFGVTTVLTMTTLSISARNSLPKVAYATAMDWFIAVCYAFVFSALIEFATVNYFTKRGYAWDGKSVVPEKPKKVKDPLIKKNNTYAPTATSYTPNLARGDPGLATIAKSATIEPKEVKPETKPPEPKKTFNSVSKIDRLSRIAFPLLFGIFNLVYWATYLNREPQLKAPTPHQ
Sequence of Kappa-type opioid receptor (P41145 whole entry): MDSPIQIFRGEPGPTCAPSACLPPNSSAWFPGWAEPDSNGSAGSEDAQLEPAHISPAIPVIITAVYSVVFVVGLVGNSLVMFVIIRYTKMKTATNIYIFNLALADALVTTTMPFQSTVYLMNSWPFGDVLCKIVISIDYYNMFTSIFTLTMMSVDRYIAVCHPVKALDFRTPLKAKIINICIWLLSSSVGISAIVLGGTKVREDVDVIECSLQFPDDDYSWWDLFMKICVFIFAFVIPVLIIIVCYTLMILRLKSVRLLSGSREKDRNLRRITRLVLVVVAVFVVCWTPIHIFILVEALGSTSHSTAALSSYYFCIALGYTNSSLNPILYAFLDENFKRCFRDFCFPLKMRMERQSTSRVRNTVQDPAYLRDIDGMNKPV
Sequence of Neuronal acetylcholine receptor subunit alpha-4 (P43681 whole entry): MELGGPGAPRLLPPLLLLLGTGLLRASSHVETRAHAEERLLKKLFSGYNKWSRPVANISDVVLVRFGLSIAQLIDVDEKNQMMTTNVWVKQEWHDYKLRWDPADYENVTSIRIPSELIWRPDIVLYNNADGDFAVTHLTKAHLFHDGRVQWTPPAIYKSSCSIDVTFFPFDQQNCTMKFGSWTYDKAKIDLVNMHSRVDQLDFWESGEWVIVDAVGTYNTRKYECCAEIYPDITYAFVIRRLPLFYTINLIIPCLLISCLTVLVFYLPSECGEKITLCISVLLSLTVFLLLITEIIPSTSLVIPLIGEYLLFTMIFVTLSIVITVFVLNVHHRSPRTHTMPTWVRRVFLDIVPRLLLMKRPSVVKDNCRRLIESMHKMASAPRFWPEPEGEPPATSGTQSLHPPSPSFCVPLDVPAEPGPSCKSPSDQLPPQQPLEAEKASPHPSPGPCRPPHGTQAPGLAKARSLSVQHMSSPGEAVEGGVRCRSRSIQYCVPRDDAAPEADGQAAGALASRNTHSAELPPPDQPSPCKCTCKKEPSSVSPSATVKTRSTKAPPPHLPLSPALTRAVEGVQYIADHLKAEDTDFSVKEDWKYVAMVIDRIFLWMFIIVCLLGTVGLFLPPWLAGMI
Sequence of Beta-1 adrenergic receptor (P08588 whole entry): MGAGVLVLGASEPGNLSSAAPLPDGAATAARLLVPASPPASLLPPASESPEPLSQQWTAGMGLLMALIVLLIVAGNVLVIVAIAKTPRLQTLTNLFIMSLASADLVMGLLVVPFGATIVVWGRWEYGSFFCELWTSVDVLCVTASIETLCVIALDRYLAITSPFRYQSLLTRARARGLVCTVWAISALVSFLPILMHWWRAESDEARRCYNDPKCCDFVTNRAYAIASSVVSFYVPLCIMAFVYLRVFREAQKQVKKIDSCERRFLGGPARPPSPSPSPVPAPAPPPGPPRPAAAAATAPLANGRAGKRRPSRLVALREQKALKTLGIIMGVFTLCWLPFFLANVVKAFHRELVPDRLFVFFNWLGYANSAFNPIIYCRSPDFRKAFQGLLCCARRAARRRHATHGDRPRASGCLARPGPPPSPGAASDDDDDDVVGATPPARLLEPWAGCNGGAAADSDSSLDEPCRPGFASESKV
Sequence of Histamine H2 receptor (P25021 whole entry): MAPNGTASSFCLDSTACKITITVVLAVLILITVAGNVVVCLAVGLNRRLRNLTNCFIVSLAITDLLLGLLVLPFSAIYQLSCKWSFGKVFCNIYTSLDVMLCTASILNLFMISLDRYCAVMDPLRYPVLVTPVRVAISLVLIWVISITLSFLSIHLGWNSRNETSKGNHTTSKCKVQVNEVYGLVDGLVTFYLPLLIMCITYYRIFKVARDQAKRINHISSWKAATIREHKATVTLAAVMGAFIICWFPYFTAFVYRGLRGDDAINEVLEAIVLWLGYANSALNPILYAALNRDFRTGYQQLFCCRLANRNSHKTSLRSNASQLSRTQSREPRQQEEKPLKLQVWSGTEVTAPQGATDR
Sequence of Vasopressin V2 receptor (P30518 whole entry): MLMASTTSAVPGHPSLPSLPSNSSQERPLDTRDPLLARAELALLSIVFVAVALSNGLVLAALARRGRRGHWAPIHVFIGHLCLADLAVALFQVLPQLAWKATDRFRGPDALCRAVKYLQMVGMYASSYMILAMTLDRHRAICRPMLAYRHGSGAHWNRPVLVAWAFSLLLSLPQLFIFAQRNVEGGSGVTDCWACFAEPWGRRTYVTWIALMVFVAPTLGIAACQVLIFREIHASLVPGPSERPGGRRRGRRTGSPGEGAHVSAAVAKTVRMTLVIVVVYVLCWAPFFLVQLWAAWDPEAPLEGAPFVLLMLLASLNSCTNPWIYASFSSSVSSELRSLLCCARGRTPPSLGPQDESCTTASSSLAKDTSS
Sequence of cGMP-inhibited 3',5'-cyclic phosphodiesterase 3A (Q14432 whole entry): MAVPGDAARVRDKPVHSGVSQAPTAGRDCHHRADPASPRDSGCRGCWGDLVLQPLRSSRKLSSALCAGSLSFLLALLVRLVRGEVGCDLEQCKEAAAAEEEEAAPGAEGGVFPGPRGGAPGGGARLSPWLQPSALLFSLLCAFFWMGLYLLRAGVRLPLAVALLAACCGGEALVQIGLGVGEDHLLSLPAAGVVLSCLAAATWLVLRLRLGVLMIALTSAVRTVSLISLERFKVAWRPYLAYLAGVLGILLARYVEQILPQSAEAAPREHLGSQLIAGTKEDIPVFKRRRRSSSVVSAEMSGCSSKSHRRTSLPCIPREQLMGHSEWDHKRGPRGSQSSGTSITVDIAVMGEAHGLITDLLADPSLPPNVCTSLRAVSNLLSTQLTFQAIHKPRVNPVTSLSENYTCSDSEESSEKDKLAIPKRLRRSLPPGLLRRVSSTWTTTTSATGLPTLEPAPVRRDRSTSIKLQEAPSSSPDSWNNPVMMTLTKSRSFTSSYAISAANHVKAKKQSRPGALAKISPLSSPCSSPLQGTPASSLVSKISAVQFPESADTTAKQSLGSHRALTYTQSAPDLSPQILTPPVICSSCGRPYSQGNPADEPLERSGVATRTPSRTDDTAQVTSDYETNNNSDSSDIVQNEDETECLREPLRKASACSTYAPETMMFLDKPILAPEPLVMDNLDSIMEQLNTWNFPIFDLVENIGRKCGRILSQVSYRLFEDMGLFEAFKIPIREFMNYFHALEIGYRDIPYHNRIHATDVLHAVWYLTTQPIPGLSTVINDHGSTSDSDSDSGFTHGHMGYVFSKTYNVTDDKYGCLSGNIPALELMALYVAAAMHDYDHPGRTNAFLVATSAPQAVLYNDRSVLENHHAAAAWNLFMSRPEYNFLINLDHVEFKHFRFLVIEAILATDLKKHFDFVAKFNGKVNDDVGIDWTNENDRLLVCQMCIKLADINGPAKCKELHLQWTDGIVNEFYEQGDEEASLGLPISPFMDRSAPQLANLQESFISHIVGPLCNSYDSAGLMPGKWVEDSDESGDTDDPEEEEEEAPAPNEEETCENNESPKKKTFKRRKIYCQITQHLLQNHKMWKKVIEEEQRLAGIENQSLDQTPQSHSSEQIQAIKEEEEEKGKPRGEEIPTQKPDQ

C[C@]1(COc2ccc(N3CCC(Oc4ccc(OC(F)(F)F)cc4)CC3)cc2)Cn2cc([N+](=O)[O-])nc2O1
AC50 [1]: > 30 µM
AC50 [2]: > 10 µM
AC50 [3]: > 30 µM
AC50 [4]: > 30 µM
AC50 [5]: > 30 µM
AC50 [6]: > 30 µM
AC50 [7]: > 10 µM
AC50 [8]: > 10 µM
AC50 [9]: > 30 µM
AC50 [10]: > 10 µM

CC(=O)OCC[N+](C)(C)C [ACETYLCHOLINE]
AC50 [1]: > 30 µM
AC50 [3]: > 30 µM
AC50 [4]: > 30 µM
AC50 [5]: > 30 µM
AC50 [6]: > 30 µM
AC50 [7]: > 10 µM
AC50 [11]: > 10 µM
AC50 [8]: > 10 µM
AC50 [9]: > 30 µM
AC50 [12]: > 10 µM
AC50 [10]: > 30 µM

O=C(Nc1nc(-c2cc(Cl)cs2)c(N2CCN(C3CCCCC3)CC2)s1)c1cnc(N2CCC(C(=O)O)CC2)c(Cl)c1 [AVATROMBOPAG]
AC50 [2]: > 10 µM
AC50 [3]: > 10 µM
AC50 [4]: > 30 µM
AC50 [5]: > 10 µM
AC50 [7]: > 10 µM
AC50 [8]: > 10 µM
AC50 [10]: > 10 µM

O=C(O)CC(O)(CC(=O)O)C(=O)O [CITRIC ACID]
AC50 [13]: > 30 µM

Cc1onc(-c2c(Cl)cccc2Cl)c1C(=O)N[C@@H]1C(=O)N2[C@@H]1SC(C)(C)[C@@H]2C(=O)O [DICLOXACILLIN]
AC50 [13]: > 30 µM

C[C@H]1O[C@@H](O[C@H]2[C@@H](O)C[C@H](O[C@H]3[C@@H](O)C[C@H](O[C@H]4CC[C@@]5(C)[C@H](CC[C@@H]6[C@@H]5CC[C@]5(C)[C@@H](C7=CC(=O)OC7)CC[C@]65O)C4)O[C@@H]3C)O[C@@H]2C)C[C@H](O)[C@@H]1O [DIGITOXIN]
AC50 [13]: > 30 µM

OC(CCCN1CCCCC1)(c1ccccc1)c1ccccc1 [DIPHENIDOL]
AC50 [13]: > 30 µM

CCn1cc(C(=O)O)c(=O)c2cc(F)c(N3CCNCC3)nc21 [ENOXACIN]
AC50 [1]: > 30 µM
AC50 [2]: > 10 µM
AC50 [3]: > 30 µM
AC50 [4]: > 30 µM
AC50 [5]: > 30 µM
AC50 [6]: > 30 µM
AC50 [7]: > 10 µM
AC50 [11]: > 10 µM
AC50 [8]: > 10 µM
AC50 [9]: > 30 µM
AC50 [12]: > 10 µM
AC50 [10]: > 10 µM

C[C@@H](O)[C@H]1C(=O)N2C(C(=O)O)=C([C@H]3CCCO3)S[C@H]12 [FAROPENEM]
AC50 [13]: > 30 µM

COCCOc1cnc(NS(=O)(=O)c2ccccc2)nc1 [GLYMIDINE]
AC50 [13]: > 30 µM

CC(N)CCCC(C)(C)O (stereo not drawn) [HEPTAMINOL]
AC50 [13]: > 30 µM

CCC(=O)O[C@]1(C(=O)COC(C)=O)CC[C@H]2[C@@H]3CCC4=CC(=O)CC[C@]4(C)[C@H]3[C@@H](O)C[C@@]21C [HYDROCORTISONE ACEPONATE]
AC50 [13]: > 30 µM

O=[N+]([O-])O[C@H]1CO[C@H]2[C@@H]1OC[C@H]2O[N+](=O)[O-] [ISOSORBIDE DINITRATE]
AC50 [13]: > 30 µM

Cc1cc(CCN2CCN(c3cccc(Cl)c3)CC2)n[nH]1 [MEPIPRAZOLE]
AC50 [13]: > 30 µM

CC[N+](C)(CC)CCOC(=O)C1c2ccccc2Oc2ccccc21 [METHANTHELINE]
AC50 [13]: > 30 µM

CCOC(=O)[C@H](CCc1ccccc1)N[C@@H](C)C(=O)N1Cc2cc(OC)c(OC)cc2C[C@H]1C(=O)O [MOEXIPRIL]
AC50 [13]: > 30 µM

CC(c1ccc(Cl)c(Cl)c1)N1N=C(N)CC1=O (stereo not drawn) [MUZOLIMINE]
AC50 [13]: > 30 µM

CCN(CC)CCOC(=O)C(Cc1cccc2ccccc12)CC1CCCO1 (stereo not drawn) [NAFRONYL]
AC50 [13]: > 30 µM

N[C@@H](Cc1c[nH]c2ccc(O)cc12)C(=O)O [OXITRIPTAN]
AC50 [13]: > 30 µM

CNC(=O)Oc1ccc2c(c1)[C@]1(C)CCN(C)[C@@H]1N2C [PHYSOSTIGMINE]
AC50 [1]: > 30 µM
AC50 [2]: > 30 µM
AC50 [3]: > 30 µM
AC50 [13]: > 30 µM
AC50 [5]: > 30 µM
AC50 [6]: > 30 µM
AC50 [7]: 2.2 µM
AC50 [11]: > 30 µM
AC50 [8]: > 30 µM
AC50 [9]: > 30 µM
AC50 [12]: > 30 µM
AC50 [10]: > 30 µM

C1CNCCN1 [PIPERAZINE]
AC50 [4]: > 30 µM
AC50 [13]: > 30 µM

c1cc(CN2CCCNCCNCCCNCC2)ccc1CN1CCCNCCNCCCNCC1 [PLERIXAFOR]
AC50 [13]: > 30 µM

COCCCOc1ccnc(C[S+]([O-])c2nc3ccccc3[nH]2)c1C (stereo not drawn) [RABEPRAZOLE]
AC50 [1]: > 30 µM
AC50 [2]: > 10 µM
AC50 [3]: > 30 µM
AC50 [4]: > 30 µM
AC50 [5]: 20.5 µM
AC50 [6]: > 30 µM
AC50 [7]: > 10 µM
AC50 [11]: > 10 µM
AC50 [8]: 6 µM
AC50 [9]: > 30 µM
AC50 [12]: > 10 µM
AC50 [10]: > 10 µM

CO[C@H]1/C=C/O[C@@]2(C)Oc3c(C)c(O)c4c(O)c(cc(O)c4c3C2=O)NC(=O)/C(C)=C\C=C\[C@H](C)[C@H](O)[C@@H](C)[C@@H](O)[C@@H](C)[C@H](OC(C)=O)[C@@H]1C [RIFAMYCIN]
AC50 [13]: > 30 µM

CCCC(=O)O[C@H]1[C@H](C)O[C@@H](O[C@H]2[C@H](N(C)C)[C@@H](O)[C@H](O[C@H]3[C@@H](CC=O)C[C@@H](C)[C@@H](O)/C=C/C=C/C[C@@H](C)OC(=O)C[C@@H](O)[C@@H]3OC)O[C@@H]2C)C[C@@]1(C)OC(=O)CC [ROKITAMYCIN]
AC50 [13]: > 30 µM

O=C(Oc1ccccc1C(=O)O)c1ccccc1O [SALSALATE]
AC50 [4]: > 30 µM
AC50 [13]: > 30 µM

COc1cc([C@@H]2c3cc4c(cc3[C@@H](O[C@@H]3O[C@@H]5CO[C@@H](c6cccs6)O[C@H]5[C@H](O)[C@H]3O)[C@H]3COC(=O)[C@H]23)OCO4)cc(OC)c1O [TENIPOSIDE]
AC50 [13]: > 30 µM

c1ccc2[nH]c(-c3cscn3)nc2c1 [THIABENDAZOLE]
AC50 [13]: > 30 µM

CCSc1ccc2c(c1)N(CCCN1CCN(C)CC1)c1ccccc1S2 [THIETHYLPERAZINE]
AC50 [2]: > 3 µM
AC50 [3]: > 30 µM
AC50 [13]: > 30 µM
AC50 [11]: > 30 µM
AC50 [10]: > 30 µM
